The text below walks through data of paper PMC9732672, “Pyrazolyl-s-triazine with indole motif as a novel of epidermal growth factor receptor/cyclin-dependent kinase 2 dual inhibitors” (Frontiers in Chemistry, 2022).

Structures are written as SMILES.

Assay [1] has as its system A549 (non-small cell lung cancer) cells. The assay is described as follows: MTT cytotoxicity assay, A549. In kind it is cell-based, human. Particulars: Homo sapiens, A549, average ±SD of four independent experiments, read-out: IC50 ± STDEV, A549. The procedure: (§1) The parental MCF7 (breast cancer cell line), A549 (non-small cell lung cancer cell line), and human dermal fibroblast (HDF) (human dermal cell line) cells were obtained from the American Type Culture Collection (ATCC, Manassas, VA, United States). MCF7 and A549 cells were cultured in RPMI 1640 medium (EuroClone, Italy) supplemented with 10% (v/v) heat-inactivated fetal bovine serum (FBS) (EuroClone, Italy), 1% penicillin-streptomycin (EuroClone, Italy), and 2 mM L-glutamine.
(§2) The cytotoxic activity of the tested compounds were tested using MTT assay. […] Then, the cell viability was recored and IC50 values were calcualted. ([Mosmann, 1983]; [Nafie et al., 2020c]).
(In general: Tetrazolium assays rely on reduction of a dye to a coloured formazan, in cell work by metabolically active cells.)

Assay [2] relates to MCF-7 (breast cancer) cells. The assay is described as follows: MTT cytotoxicity assay, MCF-7. The assay is classed as cell-based, human. The settings on record: Homo sapiens, MCF7, average ±SD of four independent experiments, read-out: IC50 ± STDEV, MCF-7. The procedure: as §1, §2
In assay [3] the test system is HDFs (non-cancerous human dermal fibroblasts). The assay can be described thus: MTT cytotoxicity assay, HDFs. In kind it is cell-based. Particulars: Homo sapiens, Fibroblast, non-cancerous cells, average ±SD of four independent experiments, read-out: IC50 ± STDEV, HDFs. The procedure: as §1, §2
The target in a further assay is T1, EGFR (Homo sapiens, UniProt P00533).
T1 construct: purchased Promega V9261
The assay can be described thus: EGFR-TK kinase assay (ADP-Glo). The assay is classed as biochemical. The settings on record: for IC50: Mean ± SD of three independent replicates, read-out: EGFR inhibition IC50. The procedure: EGFR-TK assay kit (ADP-Glo™ kinase assay, Cat No. V9261, Promega, United States) kinase assay was performed to evaluate the capacity of 3h, 3i, and 3j to inhibit EGFR.
A general note: ADP-Glo turns the ADP formed in a reaction into a luminescent signal.

The target of the next assay is CDK-2 (Homo sapiens, UniProt P24941). The assay can be described thus: CDK-2 enzyme inhibition. The assay is classed as biochemical. The settings on record: for IC50: Mean ± SD of three independent replicates.
For a further assay, the system named is A549 cells. The assay can be described thus: Flow cytometry, Annexin V/PI staining. In kind it is cell-based, human. The settings on record: A549, IC50 value, 48 h; for cells undergoing late apoptosis: control 0.16%; for cells undergoing early apoptosis: control 0.42%; for total apoptosis / total apoptotic cell death, fold vs control: control 0.61%; for necrosis-mediated cell death / necrosis-mediated cell death, fold increase: control 0.97%. The procedure:
A549 cells were seeded into 6-well culture plates (3-5× 10^5 cells/well) and incubated overnight. […] Next, media supernatants and cells were collected and rinsed with ice-cold PBS. The cells were then suspended in the flow cytometry solutions and cells were stained with Annexin V/PI, and data was acquired using a Cytoflex FACS machine. Data were analyzed using cytExpert software. ([Hisham et al., 2019]; [Khodair et al., 2019]; [Nafie et al., 2020b]).
A general note: In flow cytometry, cells or beads pass a laser one at a time.

Assay [4] deals with apoptosis-related genes in A549 cells. The assay can be described thus: Gene expression analysis by RT-PCR. The assay is classed as cell-based, human. Particulars: A549 treated at IC50; normalized to β-actin; 2^-ΔΔCT.
A further assay has as its target 5-HT7R. The arrangement: method as in Kułaga et al., 2020. Particulars: ref Kułaga et al., 2020; read-out: Ki, 5-HT7 receptors; cited from earlier work.
The test system of a further assay is CDK1. The arrangement: method as in Kumar et al., 2019. Particulars: Figure 1; ref Kumar et al., 2019; read-out: CDK-inhibitor IC50, CDK1; cited from earlier work.
The next assay relates to CDK2-A. Set-up: method as in Kumar et al., 2019. Particulars: Figure 1; ref Kumar et al., 2019; read-out: CDK-inhibitor IC50, CDK2-A; cited from earlier work.
Another assay deals with CDK4. Set-up: method as in Kumar et al., 2019. Particulars: Figure 1; ref Kumar et al., 2019; read-out: CDK-inhibitor IC50, CDK4; cited from earlier work.
The next assay has as its system CDK6. Set-up: method as in Kumar et al., 2019. The settings on record: Figure 1; ref Kumar et al., 2019; read-out: CDK-inhibitor IC50, CDK6; cited from earlier work.

T1 sequence (P00533 25-1210): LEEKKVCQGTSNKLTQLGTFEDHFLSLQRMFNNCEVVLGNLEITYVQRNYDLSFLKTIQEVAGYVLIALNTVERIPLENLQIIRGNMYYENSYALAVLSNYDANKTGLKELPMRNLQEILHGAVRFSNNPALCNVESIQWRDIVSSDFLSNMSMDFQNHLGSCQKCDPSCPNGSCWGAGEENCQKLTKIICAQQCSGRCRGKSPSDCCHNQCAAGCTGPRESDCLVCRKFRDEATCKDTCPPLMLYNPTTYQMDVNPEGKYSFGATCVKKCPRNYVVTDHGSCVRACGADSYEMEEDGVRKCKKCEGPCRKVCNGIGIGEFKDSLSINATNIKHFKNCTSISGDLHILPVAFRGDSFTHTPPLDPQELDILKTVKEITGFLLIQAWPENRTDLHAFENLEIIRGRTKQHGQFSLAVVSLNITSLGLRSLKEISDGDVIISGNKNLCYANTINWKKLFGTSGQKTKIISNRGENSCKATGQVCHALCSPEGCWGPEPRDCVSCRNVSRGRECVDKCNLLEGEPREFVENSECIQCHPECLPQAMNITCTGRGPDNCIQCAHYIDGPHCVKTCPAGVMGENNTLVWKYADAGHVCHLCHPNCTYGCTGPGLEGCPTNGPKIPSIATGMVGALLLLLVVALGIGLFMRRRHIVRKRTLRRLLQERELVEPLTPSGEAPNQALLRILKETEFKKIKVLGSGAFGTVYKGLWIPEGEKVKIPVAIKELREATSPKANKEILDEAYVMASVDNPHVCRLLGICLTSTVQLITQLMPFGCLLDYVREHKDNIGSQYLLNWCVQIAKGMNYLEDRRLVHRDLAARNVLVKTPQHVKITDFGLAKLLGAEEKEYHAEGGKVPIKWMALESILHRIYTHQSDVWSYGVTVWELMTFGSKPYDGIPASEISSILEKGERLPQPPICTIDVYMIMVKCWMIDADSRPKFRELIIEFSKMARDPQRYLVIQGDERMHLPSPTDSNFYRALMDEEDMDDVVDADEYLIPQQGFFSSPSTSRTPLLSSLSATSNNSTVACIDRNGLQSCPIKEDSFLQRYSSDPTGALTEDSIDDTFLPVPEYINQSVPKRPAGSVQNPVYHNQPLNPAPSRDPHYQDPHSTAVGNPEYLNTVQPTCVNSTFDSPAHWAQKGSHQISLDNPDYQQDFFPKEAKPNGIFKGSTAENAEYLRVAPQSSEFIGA

One may read the IC50 as the midpoint of a concentration-inhibition curve. In the case of `Nc1cc(-c2c[nH]c3ccccc23)nn1-c1nc(Nc2ccccc2)nc(N2CCOCC2)n1` [Compound 3h, 4-(5-Amino-3-(1H-indol-3-yl)-1H-pyrazol-1-yl)-6-morpholino-N-phenyl-1,3,5-triazin-2-amine], in assay [1], the IC50 turned out to be 2650 ± 220 nM. Also, the IC50 in assay [2] came to 2660 ± 260 nM. The IC50 in assay [3] is 14000 ± 2670 nM. The IC50 at EGFR was 64.2 ± 3.12 nM. At CDK-2, this compound gave an IC50 of 112 ± 3.01 nM. Moreover, in the assay with A549 cells, the “cells undergoing late apoptosis” value is 12%; the “cells undergoing early apoptosis” value amounted to 19.4%; the total apoptosis is reported as 31.4%; the “total apoptotic cell death, fold vs control” value came out at 51.4 fold. Also, in the assay on A549 cells, the necrosis-mediated cell death was 4.98% and the “necrosis-mediated cell death, fold increase” value is on record as 5.1 fold.

A word on the inhibition: it is the share of the control response that was lost under treatment. A lower inhibition goes with little suppression. As for `Nc1cc(-c2c[nH]c3ccccc23)nn1-c1nc(Nc2ccc(Cl)cc2)nc(N2CCOCC2)n1` [Compound 3i, 4-(5-Amino-3-(1H-indol-3-yl)-1H-pyrazol-1-yl)-N-(4-chlorophenyl)-6-morpholino-1,3,5-triazin-2-amine], the IC50 in assay [1] was determined as 2400 ± 640 nM. In addition, the IC50 in [2] came to 3280 ± 160 nM. The IC50 in [3] was determined as 3780 ± 550 nM. Also, the IC50 at EGFR is 34.1 ± 1.58 nM. In addition, the inhibition at 10 µM against EGFR (at 10 µM) amounted to 93.6%. The IC50 against CDK-2 stood at 108 ± 3.12 nM. The compound further came in with an inhibition at 10 µM against CDK-2 (at 10 µM) of 91.4%. In addition, in the assay on A549 cells, the “cells undergoing late apoptosis” value turned out to be 19.5%; the “cells undergoing early apoptosis” value worked out at 24.2%; the total apoptosis came to 43.7%; the “total apoptotic cell death, fold vs control” value worked out at 71.6 fold. In the assay on A549 cells, the necrosis-mediated cell death is recorded as 4.08% and the “necrosis-mediated cell death, fold increase” value worked out at 4.2 fold. Moreover, in assay [4], the “Bax gene expression, fold of change” value was 3.56 fold; the “Bcl-2 gene expression, fold change” value stood at 0.23 fold; the “P53 gene expression, fold of change” value was 4.55 fold; the “caspase 3 gene expression, fold of change” value is listed as 6.96 fold. In [4], the “caspase 8 gene expression, fold of change” value was 1.49 fold and the “caspase 9 gene expression, fold of change” value was determined as 7 fold.

As for `Nc1cc(-c2c[nH]c3ccccc23)nn1-c1nc(Nc2ccc(Br)cc2)nc(N2CCOCC2)n1` [Compound 3j, 4-(5-Amino-3-(1H-indol-3-yl)-1H-pyrazol-1-yl)-N-(4-bromophenyl)-6-morpholino-1,3,5-triazin-2-amine], the IC50 in [1] was found to be 2320 ± 210 nM. In addition, in [2], the IC50 is 3300 ± 320 nM. Also, the IC50 in [3] was 3960 ± 730 nM. In addition, the IC50 at EGFR worked out at 68.4 ± 2.98 nM. The same compound yielded an IC50 against CDK-2 of 136 ± 3.14 nM. In addition, in the assay with A549 cells, the “cells undergoing late apoptosis” value is given as 8.5%; the “cells undergoing early apoptosis” value amounted to 22.6%; the total apoptosis was 31.1%; the “total apoptotic cell death, fold vs control” value worked out at 50.9 fold. Also, in the assay on A549 cells, the necrosis-mediated cell death is 5.42% and the “necrosis-mediated cell death, fold increase” value was determined as 5.58 fold.

As a reminder, the Ki is a measure of affinity in units of concentration, obtained from inhibition or displacement. On to `Nc1nc(NCCOc2ccccc2)nc(NCCc2c[nH]c3ccccc23)n1` [XIV], for which the Ki at 5-HT7R is < 60 nM.

For the compound `OCCCNc1cncc(-c2ncnc(Nc3cccc(Cl)c3)n2)c1` [XVII], in the assay with CDK1, the IC50 is 60 nM.

For the compound `OCCCNc1cc(-c2ncnc(Nc3cccc(Cl)c3)n2)ccn1` [XVI], the IC50 in the assay on CDK1 is 21 nM; in the assay on CDK2-A, 7 nM; in the assay with CDK4, 308 nM; in the assay on CDK6 it was 356 nM.

In the case of `COc1nc(NCCc2c[nH]c3ccccc23)nc(Nc2ccc3[nH]ncc3c2)n1` [XV], the Ki at 5-HT7R is < 60 nM.
